Columns and labels:
human FPR1 = human FPR1 (Homo sapiens (Human), UniProt P21462); experiment: FPR1 cyclic adenosine monophosphate (cAMP) assay; type: cell-based; details: CHO cells overexpressing human FPR1; forskolin 10 µM; inhibition of cAMP production; read-out: hFPR1 cAMP EC50
Procedure, shortened: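 Human FPR1-expressing CHO cells were used at 4,000 per well, with compound at 0.020 nM–100 µM in 1% DMSO. Potency came from a 4-parameter logistic fit.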

human FPR2 = human FPR2 (Homo sapiens (Human), UniProt P25090); experiment: FPR2 cyclic adenosine monophosphate (cAMP) assay; type: cell-based; details: CHO cells overexpressing human FPR2; forskolin 5 µM; inhibition of cAMP production; read-out: hFPR2 cAMP2 EC50
Chain of human FPR2 (P25090 whole entry): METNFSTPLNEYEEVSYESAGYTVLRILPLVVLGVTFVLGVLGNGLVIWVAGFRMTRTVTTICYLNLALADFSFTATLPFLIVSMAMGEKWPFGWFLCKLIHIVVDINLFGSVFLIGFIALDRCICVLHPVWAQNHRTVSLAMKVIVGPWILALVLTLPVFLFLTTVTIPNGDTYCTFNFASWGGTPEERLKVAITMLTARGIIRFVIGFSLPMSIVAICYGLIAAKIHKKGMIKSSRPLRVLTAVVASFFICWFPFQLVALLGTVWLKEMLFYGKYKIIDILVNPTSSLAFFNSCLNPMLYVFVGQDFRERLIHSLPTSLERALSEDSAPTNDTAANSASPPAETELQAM
Procedure, shortened: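 Inhibition of forskolin-driven (5 µM) cAMP, with 200 µM IBMX, measured in human FPR2-expressing CHO cells, 2,000 per well, 30 min at room temperature; compounds tested 0.020 nM to 100 µM in 1% DMSO. HTRF 665/590 ratio converted to cAMP via calibration curve, then 4-parameter fit.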

Chain of human FPR1 (P21462 whole entry): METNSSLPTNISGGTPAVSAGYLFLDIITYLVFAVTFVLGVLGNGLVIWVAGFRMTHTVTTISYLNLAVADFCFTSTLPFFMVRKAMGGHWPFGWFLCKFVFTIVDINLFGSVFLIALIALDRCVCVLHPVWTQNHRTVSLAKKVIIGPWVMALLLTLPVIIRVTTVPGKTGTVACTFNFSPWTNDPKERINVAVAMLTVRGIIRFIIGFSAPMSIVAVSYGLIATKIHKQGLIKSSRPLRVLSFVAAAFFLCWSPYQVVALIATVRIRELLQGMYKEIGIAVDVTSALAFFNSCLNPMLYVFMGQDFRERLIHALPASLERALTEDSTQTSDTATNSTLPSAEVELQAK

| SMILES | EC50 (human FPR1) [nM] | EC50 (human FPR2) [nM] |
| --- | --- | --- |
| CCn1nccc(N2C[C@@H](c3ccc(OC)cc3)[C@H](NC(=O)c3ccc(OC(F)(F)F)cc3)C2=O)c1=O [Example 675] | 5 | 5.5 |
| COc1cc(N2C[C@@H](c3c(F)cc(OC)cc3F)[C@H](NC(=O)c3ccc(Cl)cc3)C2=O)nc(N2C[C@@H]3C[C@H]2CN3C)c1 [Example 40] | 2600 | 0.6 |
| CCn1cncc(N2C[C@@H](c3c(F)cc(OC)cc3F)[C@H](NC(=O)c3ccc(OC(F)F)cc3)C2=O)c1=O [Example 369] | 1100 | 3.7 |
| COc1cc(F)c([C@@H]2CN(c3nc(N4C[C@@H](C)N(C)[C@@H](C)C4)ccc3F)C(=O)[C@H]2NC(=O)c2ccc(OC(F)F)cc2)c(F)c1 [Example 42] | 730 | 0.7 |
| COc1ccc([C@@H]2CN(c3c(C)ccn(C4CCC4)c3=O)C(=O)[C@H]2NC(=O)c2ccc(OC(F)(F)F)cc2)cc1 [Example 687] | 0.28 | 1.8 |
| COc1cc(F)c([C@@H]2CN(c3nc(N4C[C@@H](C)N(C)[C@@H](C)C4)ccc3OC)C(=O)[C@H]2NC(=O)c2ccc(OC(F)F)cc2)c(F)c1 [Example 225] | 630 | 6.2 |
| COc1cc(F)c([C@@H]2CN(c3cccc(C4CCCNC4)n3)C(=O)[C@H]2NC(=O)c2ccc(OC(F)F)cc2)c(F)c1 (some centres unmarked) [Example 719] | 1900 | 1.4 |
| COc1cc(F)c([C@@H]2CN(c3nccc(N4CCN5CCCC5C4)c3C(F)(F)F)C(=O)[C@H]2NC(=O)c2ccc(Cl)cc2)c(F)c1 (some centres unmarked) [Example 481] | 2200 | 1.2 |
| COc1cc(F)c([C@@H]2CN(c3ccnn(CC(F)F)c3=O)C(=O)[C@H]2NC(=O)c2ccc(OC(F)F)cc2)c(F)c1 [Example 474] | 4 | 2.1 |
| COc1cc(F)c([C@@H]2CN(c3nc(C4CCN(CC(F)(F)F)CC4)ccc3F)C(=O)[C@H]2NC(=O)c2ccc(OC(F)F)cc2)c(F)c1 [Example 550] | 3.5 | 10 |
| COCC(CO)n1cccc(N2C[C@@H](c3ccc(OC)cc3)[C@H](NC(=O)c3ccc(Cl)cc3)C2=O)c1=O (some centres unmarked) [Example 411] | 120 | 2.6 |
| COCCn1ccc(C)c(N2C[C@@H](c3ccc(OC)cc3)[C@H](NC(=O)c3ccc(OC(F)F)cc3)C2=O)c1=O [Example 260] | 1.2 | 7.5 |
| COc1cc(F)c([C@@H]2CN(c3ccc[nH]c3=O)C(=O)[C@H]2NC(=O)c2ccc(OC(F)F)cc2)c(F)c1 [Example 95] | 160 | 2.7 |
| Cc1ccn(CC2CC2)c(=O)c1N1C[C@@H](c2ccc(Cl)cc2)[C@H](NC(=O)c2ccc(OC(F)F)cc2)C1=O [Example 442] | 1 | 9.6 |
| COc1ccc([C@@H]2CN(c3cccn(CC(O)C(F)(F)F)c3=O)C(=O)[C@H]2NC(=O)c2ccc(OC(F)(F)F)cc2)cc1 (some centres unmarked) [Example 656] | 13 | 2.5 |
| COCCn1cccc(N2C[C@@H](c3ccc(OC)cc3)[C@H](NC(=O)c3ccc(OC(F)(F)F)cc3)C2=O)c1=O [Example 60] | 2.6 | 1.6 |
| COc1cc(F)c([C@@H]2CN(c3nc(C4CCOCC4)ccc3F)C(=O)[C@H]2NC(=O)c2ccc(OC(F)F)cc2)c(F)c1 [Example 316] | 95 | 10 |
| COc1cc(F)c([C@@H]2CN(c3cccn(CC(O)CO)c3=O)C(=O)[C@H]2NC(=O)c2ccc(OC(F)F)cc2)c(F)c1 (some centres unmarked) [Example 681] | 1000 | 10 |
| COc1cc(F)c([C@@H]2CN(c3cc(C(F)(F)F)cn(C)c3=O)C(=O)[C@H]2NC(=O)c2ccc(Cl)cc2)c(F)c1 [Example 238] | 1500 | 6.6 |
| COc1cc(F)c([C@H]2[C@H](NC(=O)c3ccc(OC(F)F)cc3)C(=O)N(c3ncccc3OC)[C@H]2C)c(F)c1 [Example 77] | 170 | 2 |
| COc1cc(F)c([C@@H]2CN(c3nc(NC4CCOC4)ccc3F)C(=O)[C@H]2NC(=O)c2ccc(OC(F)(F)F)cc2)c(F)c1 (some centres unmarked) [Example 84] | 120 | 2.3 |
| COc1cc(F)c([C@@H]2CN(c3nc(N4C(=O)C5CCCC54)ccc3F)C(=O)[C@H]2NC(=O)c2ccc(OC(F)F)cc2)c(F)c1 (some centres unmarked) [Example 66] | 49 | 1.8 |
| COc1ccc([C@@H]2CN(c3cccn(CC(OC)C(F)(F)F)c3=O)C(=O)[C@H]2NC(=O)c2ccc(OC(F)F)cc2)cc1 (some centres unmarked) [Example 416] | 1 | 1.7 |
| COc1cc(F)c([C@@H]2CN(c3nccc(NCC4CCCO4)c3C(F)(F)F)C(=O)[C@H]2NC(=O)c2ccc(Cl)cc2)c(F)c1 (some centres unmarked) [Example 447] | 2800 | 4.7 |
| COc1cc(C2CCN(C)CC2)nc(N2C[C@@H](c3c(F)cc(OC)cc3F)[C@H](NC(=O)c3ccc(OC(F)F)cc3)C2=O)c1 [Example 498] | > 5000 | 1.8 |
| COc1ccc([C@@H]2CN(c3c(C)ccn(CC4CC4)c3=O)C(=O)[C@H]2NC(=O)c2ccc(OC(F)F)cc2)cc1 [Example 459] | 0.2 | 0.9 |
| COc1cc(C2CCNCC2)nc(N2C(=O)[C@@H](NC(=O)c3ccc(OC(F)F)cc3)[C@H](c3c(F)cc(OC)cc3F)[C@@H]2C)c1 [Example 529] | > 5000 | 6.7 |
| COc1ccc([C@@H]2CN(c3cccn(CC(O)C(F)(F)F)c3=O)C(=O)[C@H]2NC(=O)c2ccc(OC(F)F)cc2)cc1 (some centres unmarked) [Example 643] | 75 | 2.6 |
| COc1cc(F)c([C@@H]2CN(c3cccc(N4CCN(C)CC4)n3)C(=O)[C@H]2NC(=O)c2ccc(OC(F)F)cc2)c(F)c1 [Example 566] | 990 | 1.1 |
| COc1ccc([C@@H]2CN(c3cccn(CC(F)F)c3=O)C(=O)[C@H]2NC(=O)c2ccc(OC(F)(F)F)cc2)c(F)c1 [Example 45] | 4.3 | 1 |

More lines, now with the values ahead:

| EC50 (human FPR1) [nM] | EC50 (human FPR2) [nM] | SMILES |
| --- | --- | --- |
| 17 | 2.8 | CCN1CCC(N2C[C@@H](c3c(F)cc(OC)cc3F)[C@H](NC(=O)c3ccc(OC(F)(F)F)cc3)C2=O)C1=O (some centres unmarked) [Example 372] |
| 3 | 4.9 | COc1cc(F)c([C@@H]2CN(c3cccn(CC(OC)C(F)(F)F)c3=O)C(=O)[C@H]2NC(=O)c2ccc(OC(F)F)cc2)c(F)c1 (some centres unmarked) [Example 186] |
| 4.1 | 2.3 | COc1cc(F)c([C@@H]2CN(c3c(C)ccn(CC(F)F)c3=O)C(=O)[C@H]2NC(=O)c2ccc(OC(F)(F)F)cc2)c(F)c1 [Example 86] |
| 60 | 17 | COCCn1c(C)ccc(N2C[C@@H](c3c(F)cc(OC)cc3F)[C@H](NC(=O)c3ccc(OC(F)F)cc3)C2=O)c1=O [Example 336] |
| 27 | 7.7 | COc1cc(F)c([C@@H]2CN(c3cccn(CC4CC(F)(F)C4)c3=O)C(=O)[C@H]2NC(=O)c2ccc(OC(F)(F)F)cc2)c(F)c1 [Example 269] |
| 3300 | 2 | COc1cc(F)c([C@@H]2CN(c3cncn(C(CO)C(F)(F)F)c3=O)C(=O)[C@H]2NC(=O)c2ccc(Cl)cc2)c(F)c1 (some centres unmarked) [Example 518] |
| 1 | 2.8 | COc1cc(F)c([C@@H]2CN(c3c(C)ccn(CC4CCOCC4)c3=O)C(=O)[C@H]2NC(=O)c2ccc(OC(F)(F)F)cc2)c(F)c1 [Example 456] |
| 2 | 5.5 | COc1ccc([C@@H]2CN(c3c(C)ccn(C(F)F)c3=O)C(=O)[C@H]2NC(=O)c2ccc(OC(F)(F)F)cc2)cc1 [Example 383] |
| 0.8 | 8.6 | COCCn1ccc(C)c(N2C[C@@H](c3ccc(OC)cc3F)[C@H](NC(=O)c3ccc(OC(F)(F)F)cc3)C2=O)c1=O [Example 288] |
| 150 | 1.1 | COc1cc(F)c([C@@H]2CN(c3cccn(CC(O)C(F)(F)F)c3=O)C(=O)[C@H]2NC(=O)c2ccc(OC(F)(F)F)cc2)c(F)c1 (some centres unmarked) [Example 47] |
| 1 | 2.5 | COCC(C(=O)N1CC2(COC2)C1)n1cccc(N2C[C@@H](c3c(F)cc(OC)cc3F)[C@H](NC(=O)c3ccc(OC(F)(F)F)cc3)C2=O)c1=O (some centres unmarked) [Example 482] |
| 9 | 3.5 | COCCOc1ncccc1N1C[C@@H](c2c(F)cc(OC)cc2F)[C@H](NC(=O)c2ccc(OC(F)(F)F)cc2)C1=O [Example 408] |
| 31 | 3.5 | COc1cc(F)c([C@@H]2CN(c3ccnn(CCO)c3=O)C(=O)[C@H]2NC(=O)c2ccc(OC(F)(F)F)cc2)c(F)c1 [Example 356] |
| 5.7 | 6.6 | COc1cc(F)c([C@@H]2CN(c3c(C)ccn(C4COC4)c3=O)C(=O)[C@H]2NC(=O)c2ccc(OC(F)(F)F)cc2)c(F)c1 [Example 637] |
| 4 | 3 | COc1cc(F)c([C@@H]2CN(c3ccnn(CC(O)C(F)(F)F)c3=O)C(=O)[C@H]2NC(=O)c2ccc(OC(F)(F)F)cc2)c(F)c1 (some centres unmarked) [Example 466] |
| 540 | 24 | COc1cc(F)c([C@@H]2CN(c3ccccc3P(C)(C)=O)C(=O)[C@H]2NC(=O)c2ccc(OC(F)(F)F)cc2)c(F)c1 [Example 19] |
| 170 | 6.7 | COc1cc(F)c([C@@H]2CN(c3ccc(CO)n(C)c3=O)C(=O)[C@H]2NC(=O)c2ccc(OC(F)F)cc2)c(F)c1 [Example 243] |
| 1.6 | 11 | COCC(CO)n1ccc(C)c(N2C[C@@H](c3c(F)cc(OC)cc3F)[C@H](NC(=O)c3ccc(OC(F)(F)F)cc3)C2=O)c1=O (some centres unmarked) [Example 325] |
| 180 | 9.9 | COc1cc(F)c([C@@H]2CN(c3cccn(CC(C)(C)O)c3=O)C(=O)[C@H]2NC(=O)c2ccc(OC(F)F)cc2)c(F)c1 [Example 308] |
